Experimental data from patent US20120135997A1, “PHARMACEUTICAL COMPOSITION COMPRISING A LACTAM OR BENZENESULFONAMIDE COMPOUND” (Shionogi & Co., Ltd., priority 2009, published 2012).

Columns and labels:
Test in all cases: CYP inhibition test, pooled human liver microsomes
Format in all cases: in vitro ADME
CYP3A4 = CYP3A4 (Homo sapiens, UniProt P08684); design: from tissue; host or cells: pooled human liver microsomes; settings: hydroxylation of terfenadine
Description: Using commercially available pooled human liver microsomes and employing typical substrate metabolic reactions of 5 major species of human CYP enzymes (CYP1A2, 2C9, 2C19, 2D6, 3A4), namely, O-deethylation of 7-ethoxyresorufin (CYP1A2), methyl-hydroxylation of tolbutamide (CYP2C9), 4′-hydroxylation of mephenyloin (CYP2C19), O-demethylation of dextromethorphan (CYP2D6), and hydroxylation of terfenadine (CYP3A4), as indicator reactions, the degree of inhibition of each metabolite production by each test compound is evaluated. […] Centrifugation is performed for 15 minutes at 3000 rpm, and each metabolite in the centrifuged supernatant is quantified. Namely, resorufin (CYP1A2 metabolite) is quantified with a fluorescence multilabel counter, and hydroxylated tolbutamide (CYP2C9 metabolite), 4′-hydroxylated mephenyloin (CYP2C19 metabolite), dextrorphan (CYP2D6 metabolite) and alcoholized terfenadine (CYP3A4 metabolite) are quantified with LC/MS/MS. […] The remaining activity (%) at each concentration after adding the test compound solution is calculated, and the […] is calculated from the concentration and inhibition percentage by inverse estimation with the logistic model.

CYP2C19 = target: T1, CYP2C19 (Homo sapiens, UniProt P33261); settings: 4′-hydroxylation of mephenyloin
T1 construct: from tissue; host or cells: pooled human liver microsomes
T1 sequence (P33261 whole entry): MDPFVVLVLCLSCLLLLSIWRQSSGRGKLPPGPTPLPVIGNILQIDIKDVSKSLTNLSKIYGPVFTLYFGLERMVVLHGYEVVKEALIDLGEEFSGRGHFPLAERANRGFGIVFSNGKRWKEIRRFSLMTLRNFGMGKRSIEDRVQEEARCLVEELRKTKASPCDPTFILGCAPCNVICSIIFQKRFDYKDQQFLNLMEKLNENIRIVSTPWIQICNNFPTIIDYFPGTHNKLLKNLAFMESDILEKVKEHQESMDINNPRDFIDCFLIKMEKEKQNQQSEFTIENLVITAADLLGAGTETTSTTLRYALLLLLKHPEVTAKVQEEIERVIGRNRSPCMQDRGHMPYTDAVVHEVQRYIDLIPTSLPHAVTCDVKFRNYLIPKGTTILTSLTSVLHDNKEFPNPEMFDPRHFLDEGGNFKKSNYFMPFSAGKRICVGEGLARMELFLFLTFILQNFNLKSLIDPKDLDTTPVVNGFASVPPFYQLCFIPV
Description: (§1) Using commercially available pooled human liver microsomes and employing typical substrate metabolic reactions of 5 major species of human CYP enzymes (CYP1A2, 2C9, 2C19, 2D6, 3A4), namely, O-deethylation of 7-ethoxyresorufin (CYP1A2), methyl-hydroxylation of tolbutamide (CYP2C9), 4′-hydroxylation of mephenyloin (CYP2C19), O-demethylation of dextromethorphan (CYP2D6), and hydroxylation of terfenadine (CYP3A4), as indicator reactions, the degree of inhibition of each metabolite production by each test compound is evaluated. The reaction conditions are as follows: Substrate: 0.5 μmol/L of ethoxyresorufin (CYP1A2), 100 μmol/L of tolbutamide (CYP2C9), 50 μmol/L of S-mephenyloin (CYP2C19), 5 μmol/L of dextromethorphan (CYP2D6), 1 μmol/L of terfenadine (CYP3A4); Reaction time period: 15 minutes; Reaction temperature: 37° C.; Enzyme: pooled human liver microsomes 0.2 mg protein/mL; Test compound concentration: 1, 5, 10 and 20 μmol/L (four different concentrations). As a reaction solution, the respective five substrates, human liver microsomes, and test compound in the aforementioned amounts are added to a 50 mM Hepes buffer in a 96-well plate. NADPH, which is a coenzyme, is added thereto to start the indicator metabolic reaction. The reaction proceeds for 15 minutes at 37° C., and the solution of methanol/acetonitrile=1/1 (v/v) is added so as to terminate the reaction. Centrifugation is performed for 15 minutes at 3000 rpm, and each metabolite in the centrifuged supernatant is quantified. Namely, resorufin (CYP1A2 metabolite) is quantified with a fluorescence multilabel counter, and hydroxylated tolbutamide (CYP2C9 metabolite), 4′-hydroxylated mephenyloin (CYP2C19 metabolite), dextrorphan (CYP2D6 metabolite) and alcoholized terfenadine (CYP3A4 metabolite) are quantified with LC/MS/MS. Control (100%) is prepared by adding only DMSO, a solvent to dissolve the test compound, to the reaction system. The remaining activity (%) at each concentration after adding the test compound solution is calculated, and the […] is calculated from the concentration and inhibition percentage by inverse estimation with the logistic model.

CYP2C9 = target: T2, CYP2C9 (Homo sapiens, UniProt P11712); settings: methyl-hydroxylation of tolbutamide
T2 construct: from tissue; host or cells: pooled human liver microsomes
T2 sequence (P11712 whole entry): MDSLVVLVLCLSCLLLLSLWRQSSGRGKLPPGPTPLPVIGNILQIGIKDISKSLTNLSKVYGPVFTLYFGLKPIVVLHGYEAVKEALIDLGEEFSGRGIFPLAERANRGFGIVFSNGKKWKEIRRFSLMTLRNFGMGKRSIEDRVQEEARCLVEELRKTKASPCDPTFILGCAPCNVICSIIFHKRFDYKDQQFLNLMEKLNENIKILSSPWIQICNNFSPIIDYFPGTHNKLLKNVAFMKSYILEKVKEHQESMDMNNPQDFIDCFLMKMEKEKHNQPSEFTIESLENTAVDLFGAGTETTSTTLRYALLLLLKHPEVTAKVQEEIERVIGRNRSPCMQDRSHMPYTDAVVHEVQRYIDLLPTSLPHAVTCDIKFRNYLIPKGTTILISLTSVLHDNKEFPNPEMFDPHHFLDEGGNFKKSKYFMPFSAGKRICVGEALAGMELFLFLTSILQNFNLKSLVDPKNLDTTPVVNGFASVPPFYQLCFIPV
Description: as §1

CYP1A2 = target: T3, CYP1A2 (Homo sapiens, UniProt P05177); settings: O-deethylation of 7-ethoxyresorufin
T3 construct: from tissue; host or cells: pooled human liver microsomes
T3 sequence (P05177 1-516): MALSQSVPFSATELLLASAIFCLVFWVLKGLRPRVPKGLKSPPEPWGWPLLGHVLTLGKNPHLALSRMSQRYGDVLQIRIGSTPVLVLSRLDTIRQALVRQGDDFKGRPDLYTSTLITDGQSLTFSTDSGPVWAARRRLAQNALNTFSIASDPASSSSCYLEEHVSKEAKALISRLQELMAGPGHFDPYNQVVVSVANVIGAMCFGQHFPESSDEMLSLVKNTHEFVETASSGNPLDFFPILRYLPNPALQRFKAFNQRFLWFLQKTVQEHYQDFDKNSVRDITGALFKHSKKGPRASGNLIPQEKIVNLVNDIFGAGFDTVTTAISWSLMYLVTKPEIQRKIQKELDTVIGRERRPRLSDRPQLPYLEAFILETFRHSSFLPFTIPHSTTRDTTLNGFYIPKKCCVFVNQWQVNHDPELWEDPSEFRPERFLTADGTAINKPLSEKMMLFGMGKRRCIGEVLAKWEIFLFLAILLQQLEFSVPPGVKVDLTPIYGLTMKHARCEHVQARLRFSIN
Description: as §1

CYP2D6 = target: T4, CYP2D6 (Homo sapiens, UniProt P10635); settings: O-demethylation of dextromethorphan
T4 construct: from tissue; host or cells: pooled human liver microsomes
T4 sequence (P10635 whole entry): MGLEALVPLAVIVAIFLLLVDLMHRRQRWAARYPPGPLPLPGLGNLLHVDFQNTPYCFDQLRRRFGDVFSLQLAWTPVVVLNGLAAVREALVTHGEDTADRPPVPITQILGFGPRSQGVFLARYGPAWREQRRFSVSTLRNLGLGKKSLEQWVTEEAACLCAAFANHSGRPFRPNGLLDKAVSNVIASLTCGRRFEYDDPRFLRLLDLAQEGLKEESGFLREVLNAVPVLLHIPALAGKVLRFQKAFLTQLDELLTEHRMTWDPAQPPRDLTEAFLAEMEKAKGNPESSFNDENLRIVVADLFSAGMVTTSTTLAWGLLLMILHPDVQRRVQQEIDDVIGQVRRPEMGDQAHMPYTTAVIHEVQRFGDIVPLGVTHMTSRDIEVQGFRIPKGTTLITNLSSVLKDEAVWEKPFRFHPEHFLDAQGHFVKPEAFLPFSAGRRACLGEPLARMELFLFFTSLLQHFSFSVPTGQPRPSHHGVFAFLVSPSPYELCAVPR
Description: as §1

Sequence of CYP3A4 (P08684 whole entry): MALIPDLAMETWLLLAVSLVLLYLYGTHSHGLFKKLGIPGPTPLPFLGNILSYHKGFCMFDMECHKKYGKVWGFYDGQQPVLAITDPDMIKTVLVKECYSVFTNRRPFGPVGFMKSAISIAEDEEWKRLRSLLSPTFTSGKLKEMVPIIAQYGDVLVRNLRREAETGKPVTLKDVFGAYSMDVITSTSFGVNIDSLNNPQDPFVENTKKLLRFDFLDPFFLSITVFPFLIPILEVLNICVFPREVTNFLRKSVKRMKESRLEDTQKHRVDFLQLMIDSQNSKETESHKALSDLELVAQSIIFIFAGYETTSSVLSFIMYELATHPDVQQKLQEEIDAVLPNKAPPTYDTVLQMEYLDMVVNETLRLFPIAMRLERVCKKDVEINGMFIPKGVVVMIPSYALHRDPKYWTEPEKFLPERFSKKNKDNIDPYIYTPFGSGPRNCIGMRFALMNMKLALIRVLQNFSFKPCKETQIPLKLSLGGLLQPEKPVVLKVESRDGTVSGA

- IC50 (CYP3A4): > 10 µM
- IC50 (CYP2C19): > 10 µM
- IC50 (CYP2C9): > 10 µM
- IC50 (CYP1A2): > 10 µM
- IC50 (CYP2D6): > 10 µM
SMILES: COc1cc(NS(=O)(=O)c2ccccc2CO)ccc1-n1cnc(C)c1 [Compound 121]
